One experiment has as its system NCI 60 cell panel. As to the kind of experiment: DTP-NCI assay (NCI 60 cell screen, single high dose). The experiment is classed as cell-based. As to conditions: Homo sapiens, 48 h; single high dose 10^-5 M, full NCI 60 cell panel; growth relative to no-drug control and to time zero number of cells; read-out: DTP-NCI (mean of the percent growth of treated cells). On the procedure:
The effect of 10 μM of MTF504 was monitored on a panel 60 cell lines representing nine distinct tumour types: leukemia, colon, lung, central nervous system, renal, melanoma, ovarian, breast and prostate. Briefly, the compound was sent to the US National Cancer Institute where its antineoplastic effects were monitored on the panel of cell lines after 48 hours of treatment following a standardized protocol.
All compounds submitted to the NCI 60 Cell screen are tested initially at a single high dose (10^-5 M) in the full NCI 60 cell panel. The results are reported as a mean of the percent growth of treated cells. The number reported is growth relative to the no-drug control, and relative to the time zero number of cells. This allows detection of […].

The next experiment has as its system A375. As to the kind of experiment: Cell viability of A375 melanoma cells by Trypan Blue exclusion. The experiment is classed as cell-based. Conditions: Homo sapiens, A-375, viable cells as mean percentage of control cells ± SEM, N=3. The method, then:
The BRAFV600E mutant melanoma line A375 (CRL-1619) was purchased from ATCC (Manassas, VA, USA). The A375 were maintained in glutamine-containing DMEM supplemented with 10% heat-inactivated fetal bovine serum, penicillin (100 units/ml) and streptomycin ([…]).
Cell viability was measured by the Trypan Blue exclusion method. Briefly, cells washed with PBS were harvested by a 3-minute incubation in 0.05% trypsin before neutralization with serum containing medium. An aliquot of the cell suspension was then mixed 1:1 with a 0.4% Trypan blue solution and viable cells were counted within 5 minutes on Kova slides under an optical microscope. Results are expressed as the mean percentage of control cells±SEM. N=3

The mark [1] stands for this setting: 24 h, read-out: Viab A375 5 μM/24 h.
The mark [2] stands for this setting: 48 h, read-out: Viab A375 5 μM/48 h.
The mark [3] stands for this setting: 24 h, read-out: Viab A375 10 μM/24 h.
Setting [4] is: 48 h, read-out: Viab A375 10 μM/48 h.

Read-outs that look alike come from different tables or passages of the source.

For the compound `N=C(NC(=O)Nc1ccc(Cl)cc1Cl)Nc1nc2ccccc2s1` [MTF649, N-benzo[d]thiazol-2-yl-N″-(2,4-dichloroaniline-carbonyl)-guanidine], the activity at 10 µM with NCI 60 cell panel is -58.2%.

Regarding `CCc1ccccc1NC(=O)NC(=N)Nc1nc2ccccc2s1` [MTF653, N-benzo[d]thiazol-2-yl-N″-(2-ethylaniline-carbonyl)-guanidine], the activity at 10 µM in the experiment on NCI 60 cell panel was 0.27%.

As to `Cc1nc(NC(=N)NC(=O)Nc2cccc([N+](=O)[O-])c2)sc1C` [MTF512, 4,5-dimethylthiazol-2-yl-N″-(3-nitroaniline-carbonyl)-guanidine], the viability at 5 µM stood at 87% in the experiment on A375 (setting [1]) and 54.3% in the experiment with A375 (setting [2]).

On to `N=C(NC(=O)Nc1c(Cl)cccc1Cl)Nc1nc2ccccc2s1` [MTF650, N-benzo[d]thiazol-2-yl-N″-(2,6-dichloroaniline-carbonyl)-guanidine], for which, in the experiment with NCI 60 cell panel, the activity at 10 µM was found to be 36.4%.

Consider `Cc1ccccc1NC(=O)NC(=N)Nc1nc(C)c(C)s1` [MTF509, 4,5-dimethylthiazol-2-yl-N″-(2-methylaniline-carbonyl)-guanidine], for which the figures for the viability at 5 µM in the experiment with A375 (setting [1]) and in the experiment with A375 (setting [2]) were 23% and 13.6%, respectively. Moreover, the activity at 10 µM in the experiment on NCI 60 cell panel turned out to be 29.3%.

As to `N=C(NC(=O)Nc1ccc(Br)cc1)Nc1nc(-c2cccc([N+](=O)[O-])c2)cs1` [MTF427, N-4-(3-nitrophenyl) thiazol-2-yl-N″-(4-bromoaniline-carbonyl)-guanidine], the viability at 5 µM in the experiment on A375 (setting [1]) is 94.2%; with A375 (setting [2]), 34.4%. Besides, the activity at 10 µM with NCI 60 cell panel was 72.5%.

As for `CCOc1ccccc1NC(=O)NC(=N)Nc1nc2ccccc2s1` [MTF652, N-benzo[d]thiazol-2-yl-N″-(2-ethoxyaniline-carbonyl)-guanidine], the activity at 10 µM in the experiment on NCI 60 cell panel stood at 12.6%.

For `Cc1cccc(NC(=O)NC(=N)Nc2nc3ccccc3s2)c1` [MTF420, N-benzo[d]thiazol-2-yl-N″-(3-methylaniline-carbonyl)-guanidine], the viability at 5 µM with A375 (setting [1]) was determined as 59%; in the experiment with A375 (setting [2]), 24.8%. For the same compound, the viability at 10 µM in the experiment on A375 (setting [3]) stood at 48.9%; in the experiment on A375 (setting [4]), 20.4%. Besides, the activity at 10 µM in the experiment on NCI 60 cell panel amounted to 32.9%.

`N=C(NC(=O)Nc1cccc2ccccc12)Nc1nc(-c2ccccc2)cs1` [MTF435, N-4-phenylthiazol-2-yl-N″-(naphtalen-1-amine-carbonyl)-guanidine]: the viability at 5 µM was determined as 81% in the experiment on A375 (setting [1]) and 84.6% in the experiment with A375 (setting [2]).

For the compound `N=C(NC(=O)Nc1ccccc1Cl)Nc1nc2ccc([N+](=O)[O-])cc2s1` [MTF657, N-6-nitrobenzo[d]thiazol-2-yl-N″-(2-chloroaniline-carbonyl)-guanidine], in the experiment on NCI 60 cell panel, the activity at 10 µM came to 31.2%.

Take `COc1cccc(NC(=O)NC(=N)Nc2nc(-c3cccc([N+](=O)[O-])c3)cs2)c1` [MTF432, N-4-(3-nitrophenyl) thiazol-2-yl-N″-(3-methoxyaniline-carbonyl)-guanidine]: the viability at 5 µM in the experiment with A375 (setting [1]) was found to be 115%; in the experiment on A375 (setting [2]) it was 29.8%. The activity at 10 µM in the experiment with NCI 60 cell panel is 74.8%.

Regarding `Cc1nc(NC(=N)NC(=O)Nc2ccccc2Cl)sc1C` [MTF505, 4,5-dimethylthiazol-2-yl-N″-(2-chloroaniline-carbonyl)-guanidine], the viability at 5 µM was 31.1% with A375 (setting [1]) and 10% in the experiment on A375 (setting [2]). Also, the activity at 10 µM with NCI 60 cell panel was 33%.

In the case of `COc1cccc(NC(=O)NC(=N)Nc2nc(C)c(C)s2)c1` [MTF511, 4,5-dimethylthiazol-2-yl-N″-(3-methoxyaniline-carbonyl)-guanidine], the results for the viability at 5 µM with A375 (setting [1]) and in the experiment on A375 (setting [2]) were 92.1% and 82.8%, respectively.

With `N=C(NC(=O)Nc1ccccc1[N+](=O)[O-])Nc1nc2ccccc2s1` [MTF655, N-benzo[d]thiazol-2-yl-N″-(2-nitroaniline-carbonyl)-guanidine], the activity at 10 µM with NCI 60 cell panel worked out at 11.6%.

As to `Cc1ccccc1NC(O)NC(=N)Nc1nc(-c2cccc([N+](=O)[O-])c2)cs1` (stereo not drawn) [MTF515, N-4-(3-nitrophenyl) thiazol-2-yl-N″-(2-methylaniline-carbonyl)-guanidine], the figures for the viability at 5 µM in the experiment on A375 (setting [1]) and with A375 (setting [2]) were 64.9% and 28.7%, respectively. Also, the activity at 10 µM with NCI 60 cell panel was 37.7%.

In the case of `Cc1nc(NC(=N)NC(=O)Nc2ccc(Br)cc2)sc1C` [MTF429, 4,5-dimethylthiazol-2-yl-N″-(4-bromoaniline-carbonyl)-guanidine], the values for the viability at 5 µM in the experiment with A375 (setting [1]) and in the experiment on A375 (setting [2]) were 94.2% and 39.1%, respectively.

Turning to `COc1ccccc1NC(=O)NC(=N)Nc1nc(-c2ccccc2)cs1` [MTF433, N-4-phenylthiazol-2-yl-N″-(2-methoxyaniline-carbonyl)-guanidine], the viability at 5 µM came out at 109% with A375 (setting [1]) and 43.9% with A375 (setting [2]).

Turning to `N=C(NC(=O)Nc1ccccc1Br)Nc1nc2ccccc2s1` [MTF651, N-benzo[d]thiazol-2-yl-N″-(2-bromoaniline-carbonyl)-guanidine], the activity at 10 µM with NCI 60 cell panel was -17.8%.

Consider `COc1ccccc1NC(=O)NC(=N)Nc1nc(-c2cccc([N+](=O)[O-])c2)cs1` [MTF434, N-4-(3-nitrophenyl) thiazol-2-yl-N″-(2-methoxyaniline-carbonyl)-guanidine], for which the viability at 5 µM in the experiment with A375 (setting [1]) turned out to be 63.8%; in the experiment with A375 (setting [2]), 50.7%.

As to `N=C(NC(=O)Nc1cccc2ccccc12)Nc1nc(-c2cccc([N+](=O)[O-])c2)cs1` [MTF430, N-4-(3-nitrophenyl) thiazol-2-yl-N″-(naphtalen-1-amine-carbonyl)-guanidine], the viability at 5 µM with A375 (setting [1]) amounted to 75.8%; with A375 (setting [2]) it was 25.3%. Further, the activity at 10 µM with NCI 60 cell panel was 89.2%.

Consider `N=C(NC(=O)Nc1cccc2ccccc12)Nc1nc2ccccc2s1` [MTF418, N-benzo[d]thiazol-2-yl-N″-(naphtalen-1-amine-carbonyl)-guanidine], for which the viability at 5 µM was determined as 16.5% with A375 (setting [1]) and 16.7% in the experiment with A375 (setting [2]). For the same compound, the viability at 10 µM in the experiment on A375 (setting [3]) is 41%; in the experiment with A375 (setting [4]), 4.6%. Moreover, the activity at 10 µM with NCI 60 cell panel amounted to 26.1%.

As for `N=C(NC(=O)Nc1ccc(Cl)cc1)Nc1nc(-c2cccc([N+](=O)[O-])c2)cs1` [MTF428, N-4-(3-nitrophenyl) thiazol-2-yl-N″-(4-chloroaniline-carbonyl)-guanidine], the viability at 5 µM was determined as 128% with A375 (setting [1]) and 50.2% in the experiment on A375 (setting [2]).

In the case of `COc1ccccc1NC(=O)NC(=N)Nc1nc2ccccc2s1` [MTF419, N-benzo[d]thiazol-2-yl-N″-(2-methoxyaniline-carbonyl)-guanidine], the viability at 5 µM in the experiment on A375 (setting [1]) was found to be 62.6%; with A375 (setting [2]), 18.8%. The viability at 10 µM came out at 56.8% in the experiment on A375 (setting [3]) and 21.8% in the experiment on A375 (setting [4]). Further, the activity at 10 µM in the experiment on NCI 60 cell panel amounted to 26.7%.

Consider `Cc1nc(NC(=N)NC(=O)Nc2cccc(Cl)c2)sc1C` [MTF506, 4,5-dimethylthiazol-2-yl-N″-(3-chloroaniline-carbonyl)-guanidine], for which the viability at 5 µM in the experiment on A375 (setting [1]) is 64.3%; with A375 (setting [2]), 54.5%. The activity at 10 µM in the experiment with NCI 60 cell panel was 67.7%.

For the compound `N=C(NC(=O)Nc1ccc(Cl)cc1)Nc1nc(-c2ccccc2)cs1` [MTF426, N-4-phenylthiazol-2-yl-N″-(4-chloroaniline-carbonyl)-guanidine], the values for the viability at 5 µM with A375 (setting [1]) and in the experiment with A375 (setting [2]) were 109% and 46.4%, respectively.

In the case of `Cc1cccc(NC(=O)NC(=N)Nc2nc(-c3cccc([N+](=O)[O-])c3)cs2)c1` [MTF431, N-4-(3-nitrophenyl) thiazol-2-yl-N″-(3-methylaniline-carbonyl)-guanidine], the viability at 5 µM worked out at 95.4% in the experiment with A375 (setting [1]) and 41.6% in the experiment on A375 (setting [2]).

As to `Cc1nc(NC(=N)NC(=O)Nc2ccc(Cl)cc2)sc1C` [MTF507, 4,5-dimethylthiazol-2-yl-N″-(4-chloroaniline-carbonyl)-guanidine], the viability at 5 µM in the experiment with A375 (setting [1]) is 98.9%; in the experiment with A375 (setting [2]), 139%.

Take `Cc1ccc(Cl)cc1NC(=O)NC(=N)Nc1nc2ccccc2s1` [MTF656, N-benzo[d]thiazol-2-yl-N″-(2-methyl-5-chloroaniline-carbonyl)-guanidine]: in the experiment on NCI 60 cell panel, the activity at 10 µM is -19.4%.

With `N=C(NC(=O)NC1CC1)Nc1nc2ccccc2s1` [MTF214, N—(N-(benzo[d]thiazol-2-yl)carbamimidoyl)cyclopropylamine-1-carboxamide], the viability at 5 µM in the experiment on A375 (setting [1]) came to 98.2%; in the experiment on A375 (setting [2]), 76.6%. Besides, the viability at 10 µM came out at 51.5% with A375 (setting [3]) and 87.7% in the experiment on A375 (setting [4]).

As to `N=C(NC(=O)Nc1ccccc1F)Nc1nc2ccccc2s1` [MTF654, N-benzo[d]thiazol-2-yl-N″-(2-fluoroaniline-carbonyl)-guanidine], the activity at 10 µM in the experiment on NCI 60 cell panel was 20.3%.

The record behind these values is US20260209196A1, “AMIDINOUREA DERIVATIVES AND THEIR USE IN THE TREATMENT OF CANCER” (UNIVERSITE COTE D'AZUR, priority 2022, published 2026).
